Entries after “also recorded” stand apart in the source; their conditions may differ. Like-named read-outs stand apart in the source and are kept apart here.
Tests used:
[1] = mRNA encapsulation efficiency (modified Quant-iT RiboGreen assay); assay type: physicochemical; conditions: LNP before freezing
Experimental: For LNPs encapsulating mRNA, mRNA concentration and encapsulation efficiency were determined using a modified Quant-iT RiboGreen assay (Invitrogen). The assay was performed in triplicates in a 96 well plate. 12 μL of the LNP sample or TE buffer (composed of 10 mM Tris-HCl containing 1 mM EDTA·Na2) (blank sample) was diluted in 300 μL of 1×TE buffer pH 7.5. 50 μL of the diluted samples were transferred to 6 separate wells and either 50 μL of TE buffer or 50 μL of a 4% Triton X-100 solution in TE buffer was added to the wells. Two 6-point standard curves ([…]) were prepared in the same plate by diluting Firefly luciferase mRNA to a final volume of 100 μL in 2% Triton X-100 or TE buffer. The plate was then incubated for 10 min at 40° C. with gentle shaking. The Ribogreen reagent was diluted 1:100 in TE buffer, and 100 μL of this solution was added to each well. […] Fluorescence intensity was measured with a plate reader at an excitation wavelength of 480 nm and an emission wavelength of 525 nm. The raw fluorescence values were subtracted by the background fluorescence (blank sample). The concentration of free mRNA and total mRNA were determined by linear interpolation of the appropriate standard curve. Encapsulation efficiency was determined by dividing the calculated concentration of encapsulated mRNA by the total mRNA concentration in the LNP sample.

[2] = assay type: physicochemical
Experimental: Determination of the apparent pKa of LNPs was carried out using a TNS assay. Briefly, a series of buffers was generated by titrating a solution containing 10 mM citrate, 10 mM phosphate, 10 mM borate, and 150 mM NaCl with 1.0 M HCl. Aliquots of this combined buffer were taken to generate 12 total buffers ranging from pH 4.0 to 9.5 in increments of 0.5 pH. LNPs (diluted to 100 uM of ionizable lipid in distilled water) and 6-(p-toluidino)-2-naphthalenesulfonic acid (TNS, Sigma Aldrich, 60 uM in distilled water) were diluted into these buffers to a final concentration of 9 and 5.45 μM, respectively. The plate was covered and equilibrated at room temperature for 20 min. Fluorescence intensity was determined using a BioTek H1 Synergy plate reader (325 nm excitation/435 nm emission). The raw fluorescence values were fit using GraphPad Prism 8 to determine pKa, which corresponds to the pH value at 50% max fluorescence.

[3] = test system: firefly luciferase protein expression; test: Intramuscular expression profile of formulated firefly luciferase mRNA in mice (IVIS); assay type: in vivo, BALB/c mice; conditions: intramuscular firefly luciferase mRNA-LNP
Experimental: (§1) All procedures used in animal studies conducted at the University of Toronto were approved by Institutional Animal Care and Use committee (IACUC) under protocol number 20012621 and comply with all applicable local, provincial, and federal regulations. Female BALB/c mice (7-8 weeks old) were purchased from Charles River Laboratories and acclimated for 1 to 2 weeks before initiation of the study.
Mice (n=4) were injected in both quadriceps with 0.5 μg of formulated firefly luciferase mRNA in 50 μL. At various timepoints (6 hours, 24 hours, 48 hours, and 96 hours post-dose), mice were injected intraperitoneally with 3 mg D-Luciferin (Thermo Scientific 88291) in 200 μL 1×PBS. 5 minutes later, mice were anesthetized and imaged on an in vivo imaging system (PerkinElmer, IVIS Spectrum) to measure total bioluminescent flux (photons/second) in each hindlimb (FIG. 2). The area under curve (AUC) for individual hindlimbs was determined with GraphPad Prism 9.

[4] = test system: firefly luciferase mRNA expression in liver, spleen, lungs, heart, kidneys; test: Organ expression of firefly luciferase mRNA after intravenous injection in mice; assay type: in vivo, BALB/c mice; conditions: 6 hours post-dose; for organ in which the highest total flux was measured: intravenous 0.5 μg mRNA
Experimental: as §1
Mice (n=3) were injected intravenously (tail vein) with 0.5 μg of formulated firefly luciferase mRNA in 200 μL. At 6 hours post-dose, mice were injected intraperitoneally with 3 mg D-Luciferin (Thermo Scientific 88291) in 200 μL 1×PBS. 5 minutes later, mice were euthanized and key organs (liver, spleen, kidneys, lungs, and heart) were harvested and immediately imaged on an in vivo imaging system (PerkinElmer, IVIS Spectrum) to measure total bioluminescent flux (photons/second). LNPs formulated with compounds I-2, I-4, I-5, I-6, I-8 were tested for their ability to functionally deliver firefly luciferase mRNA to the major organs (liver, spleen, lungs, heart, kidneys) after intravenous injection and were compared to compounds I-12 and SM-102.

[5] = Pharmacokinetics after intramuscular injection of mRNA-LNPs in mice; assay type: in vivo, female CD-1 mice; conditions: for Kp / half-life / AUC(0-t) / Cmax: female; for half-life / AUC(0-t) / Cmax: CD-1; for half-life: I-12 estimate not considered accurate, read-out: estimated apparent half-life (t1/2) in plasma (converted); for AUC(0-t): read-out: Overall plasma exposure (AUC0-tlast); for Cmax: read-out: maximum plasma concentration (Cmax); for Overall tissue exposure (AUC0-tlast), liver: mouse liver; for Overall tissue exposure (AUC0-tlast), muscle: mouse muscle; for time of peak plasma level: 12.312 μg Compound I-12 or 12.764 μg Compound I-6; for Overall tissue exposure (AUC0-tlast), spleen: mouse spleen; for detection in urine: mouse urine
Experimental: Pharmacokinetic studies in mice were conducted according to Transpharmation Canada Ltd. standard operating procedures (SOPs) and accepted scientific practices but was not in accordance with the principles of Good Laboratory Practice (GLP). Two studies were conducted and have been combined for analysis. Their objective was to determine the concentrations of two ionizable lipids, Compound I-12, and Compound I-6, in plasma, muscle, liver, spleen, urine, and feces following intramuscular (IM) injection of each lipid to groups of female CD-1 mice. All animals received an intramuscular injection of one of the lipids, formulated as lipid nanoparticles (LNPs) with mRNA, into the right quadricep. Doses administered IM were 12.312 μg of Compound I-12 and 12.764 μg of Compound I-6, corresponding to 0.5 μg of mRNA formulated in LNPs. Animals in study 1 were group housed in metabolic cages (n=3 per cage) and euthanized at 6 timepoints (3, 6, 12, 24, 48 and 96 hours) over 4 days-post injection for the collection of blood, liver, spleen, and muscle (n=3/time-point). A single pooled urine and feces sample was also collected from each cage at the appropriate time-point. In study 2, animals were housed in shoebox cages and samples (n=4/time-point) were collected at 6, 12, 24, 48, 96 and 168 hours (Compound I-12 and Compound I-6) and at 21 days (I-12 only, n=3) post-dose. A single pooled feces sample was also collected from each cage at the time of cage changes and weighed following terminal collections. Blood samples were divided for bioanalysis and diagnostic testing. Data from both studies was combined for data analysis. Tandem liquid chromatography-mass spectrometry (LC-MS/MS) methods were developed for the quantification of Compound I-12 and Compound I-6 in mouse plasma, muscle, liver, spleen, urine, and feces. The qualified methods were used to determine the concentration of the analytes in each matrix. The pharmacokinetics (PK) parameters for Compound I-12 and Compound I-6 were estimated from the plasma, muscle, liver, and spleen concentration versus time curves for each animal using Phoenix® WinNonlin 8.3 (Certara, Mountainview, CA).

[6] = assay type: physicochemical; conditions: for time required to have measurable levels of hydrolysis: 2.5 eq. KOH in d4-methanol, 1H NMR
Experimental: Ionizable lipids including compounds described herein (2 μmol) were hydrolyzed with 2.5 eq. of KOH (200 μL, 0.025 M in d4-methanol) in a 3 mm NMR tube. 1H-NMR was acquired with a 700 MHz Agilent DD2 Spectrometer every 5 min for a total of 180 min. Additionally, spectra were acquired at 24 h, 48 h, 72 h, 144 h, 192 h, and 240 h for I-12, ALC-0315, and DLin-MC3-DMA. Data acquisition started ˜10 min after the start of the reaction due to sample preparation and tune/lock/shim. Ester peaks were integrated using MestReNova and normalized to value at t=0 min. The data series were fitted to a one phase decay exponential following y=e, where k is the rate of hydrolysis.

[7] = CD-1, liver, mouse, IM mRNA-LNP, read-out: tissue/plasma AUC ratio, liver
[8] = CD-1, muscle, mouse, IM mRNA-LNP, read-out: tissue/plasma AUC ratio, muscle
[9] = CD-1, spleen, mouse, IM mRNA-LNP, read-out: tissue/plasma AUC ratio, spleen

Molecule: CCCCCCCCCCN(CCCCCCCCCC)CCOC(=O)CCN(CCO)CCC(=O)OCCN(CCCCCCCCCC)CCCCCCCCCC [Compound I-1]
- mRNA encapsulation efficiency relative to amide analogue (Compound I-12) [1]: significantly reduced
- Apparent pKa relative to amide analogue (Compound I-12 / F16) [2]: significantly reduced
- intramuscular expression (in words) [3]: significantly reduced intramuscular expression

Molecule: CCCCCCCCCCN(CCCCCCCCCC)CCCOC(=O)CCN(CCO)CCC(=O)OCCCN(CCCCCCCCCC)CCCCCCCCCC [Compound I-2]
- organ in which the highest total flux was measured [4]: liver
- fraction of expression in the spleen compared with SM-102 ([4]; intravenous): higher fraction of expression in the spleen than SM-102

Molecule: CCCCCCCCCCN(CCCCCCCCCC)CCCOC(=O)CCCN(CCO)CCCC(=O)OCCCN(CCCCCCCCCC)CCCCCCCCCC [Compound I-4]
- Apparent pKa [2]: 6-7
- intramuscular expression (in words) [3]: higher intramuscular expression than DLin-MC3-DMA
- organ in which the highest total flux was measured [4]: liver
- fraction of expression in the spleen compared with SM-102 ([4]; intravenous): higher fraction of expression in the spleen than SM-102

Molecule: CCCCCCCCCCN(CCCCCCCCCC)CCCCOC(=O)CCCN(CCO)CCCC(=O)OCCCCN(CCCCCCCCCC)CCCCCCCCCC [Compound I-5]
- Apparent pKa [2]: 6-7
- intramuscular expression (in words) [3]: higher intramuscular expression than DLin-MC3-DMA
- organ in which the highest total flux was measured [4]: spleen
- fraction of expression in the spleen compared with SM-102 ([4]; intravenous): higher fraction of expression in the spleen than SM-102

Molecule: CCCCCCCCCCN(CCCCCCCCCC)CCCOC(=O)CCCCN(CCO)CCCCC(=O)OCCCN(CCCCCCCCCC)CCCCCCCCCC [Compound I-6]
- Apparent pKa [2]: 6-7
- intramuscular expression (in words) [3]: higher intramuscular expression than DLin-MC3-DMA; also recorded: highest intramuscular expression of all compounds tested
- expression compared with SM-102 in spleen and liver ([4]; intravenous): higher expression than SM-102 in the spleen but not in the liver
- expression in organs among the compounds related to this disclosure ([4]; intravenous): highest expression in all organs
- fraction of expression in the spleen compared with SM-102 ([4]; intravenous): higher fraction of expression in the spleen than SM-102
- Kp [5, 7]: 46
- Kp [5, 8]: 962
- Kp [5, 9]: 59
- half-life ([5]; mouse plasma, IM mRNA-LNP): 15.3 h
- AUC(0-t) ([5]; mouse plasma, IM mRNA-LNP): 1030 ng·h/mL
- Cmax ([5]; mouse plasma, IM mRNA-LNP): 108 ng/mL
- Overall tissue exposure (AUC0-tlast), liver ([5]; IM mRNA-LNP): 47.0 µg·h/g
- Overall tissue exposure (AUC0-tlast), muscle ([5]; IM mRNA-LNP): 994 µg·h/g
- time of peak plasma level ([5]; mouse plasma, IM mRNA-LNP): 3 h
- Overall tissue exposure (AUC0-tlast), spleen ([5]; IM mRNA-LNP): 61.1 µg·h/g
- detection in urine ([5]; IM mRNA-LNP): Neither Compound I-12 nor Compound I-6 were detected in urine

Molecule: CCCCCCCCCCN(CCCCCCCCCC)CCCCOC(=O)CCCCN(CCO)CCCCC(=O)OCCCCN(CCCCCCCCCC)CCCCCCCCCC [Compound I-7]
- Apparent pKa [2]: 6-7
- intramuscular expression (in words) [3]: higher intramuscular expression than DLin-MC3-DMA

Molecule: CCCCCCCCCCN(CCCCCCCCCC)CCCC(=O)OCCCN(CCO)CCCOC(=O)CCCN(CCCCCCCCCC)CCCCCCCCCC [Compound I-8]
- Apparent pKa [2]: 6-7
- intramuscular expression (in words) [3]: higher intramuscular expression than DLin-MC3-DMA
- organ in which the highest total flux was measured [4]: liver
- fraction of expression in the spleen compared with SM-102 ([4]; intravenous): higher fraction of expression in the spleen than SM-102
- in vitro degradation rate, faster than Compound I-4 ([6]; 10 mM): ~50%

Molecule: CCCCCCCCCCN(CCCCCCCCCC)CCNC(=O)CCN(CCO)CCC(=O)NCCN(CCCCCCCCCC)CCCCCCCCCC [Compound I-12]
- organ in which the highest total flux was measured [4]: spleen
- time required to have measurable levels of hydrolysis [6]: 10 days
- Kp [5, 7]: 50
- Kp [5, 8]: 236
- Kp [5, 9]: 28
- half-life ([5]; mouse plasma, IM mRNA-LNP): 295 h
- AUC(0-t) ([5]; mouse plasma, IM mRNA-LNP): 13800 ng·h/mL
- Cmax ([5]; mouse plasma, IM mRNA-LNP): 348 ng/mL
- Overall tissue exposure (AUC0-tlast), liver ([5]; IM mRNA-LNP): 694 µg·h/g
- Overall tissue exposure (AUC0-tlast), muscle ([5]; IM mRNA-LNP): 3244 µg·h/g
- plasma AUC0-tlast, fold greater than Compound I-6 ([5]; mouse plasma, IM mRNA-LNP): ~13 fold
- time of peak plasma level ([5]; mouse plasma, IM mRNA-LNP): 6 h
- Overall tissue exposure (AUC0-tlast), spleen ([5]; IM mRNA-LNP): 391 µg·h/g
- detection in urine ([5]; IM mRNA-LNP): Neither Compound I-12 nor Compound I-6 were detected in urine
- excreted in feces ([5]; mouse, after 21 days post-dose): Approximately 18%

Molecule: CCCCC/C=C\C/C=C\CCCCCCCCC(CCCCCCCC/C=C\C/C=C\CCCCC)OC(=O)CCCN(C)C [DLin-MC3-DMA]
- time required to have measurable levels of hydrolysis [6]: 10 days

Molecule: CCCCCCCCCCCOC(=O)CCCCCN(CCO)CCCCCCCC(=O)OC(CCCCCCCC)CCCCCCCC [SM-102, reference compound]
- organ in which the highest total flux was measured [4]: liver
- time to complete degradation (base-catalyzed hydrolysis) ([6]; 10 mM): ≤ 180 min

Molecule: ALC-0315
- time required to have measurable levels of hydrolysis [6]: 10 days
